This passage reports logP results from the SangsterLogP compilation.

One data set is described as follows: method code SF, from DOI: 10.1021/jm00344a020, PMID: 7057427.
By logP is commonly meant the decadic logarithm of the partition coefficient of the neutral form, usually between octanol and water. Low readings indicate a more hydrophilic compound, high ones a more lipophilic compound. The compound `O=C(NN1CC=CCC1)C1CCCCCC1` displayed a logP of 1.5.

In turn, `O=C(NN1CC=CCC1)C1CC1` showed a logP of 1.12.

In turn, `CC(=O)NN1CC=CCC1` registered a lipophilicity (logP) of 0.52.

Consider `CCOC(=O)NN1CC=CCC1`, for which the logP came out at 1.09.

Regarding `O=C(NN1CC=CCC1)C1CCCCC1`, the logP amounted to 0.45.

Consider `O=C(NC1CCCC1)N1CC=CCC1`, for which the logP came to 1.92.

A further data set can be described thus: method code SF-AS, from DOI: 10.1021/jm00344a020, PMID: 7057427.
Take `O=C(NN1CC=CCC1)c1cccc(C(=O)NN2CC=CCC2)n1`: the logP was -0.52.

Compound `O=C(NN1CC=CCC1)c1cccs1` displayed a logP of 1.88.

Take `O=C(NN1CC=CCC1)C12CC3CC(CC(C3)C1)C2`: the lipophilicity (logP) was found to be 1.45.

`O=C(COc1cccc2ccccc12)NN1CC=CCC1` displayed a logP of 1.96.

`O=C(NN1CC=CCC1)c1ccco1` came in with a logP of 0.81.

Compound `O=C(COc1ccccc1)NN1CC=CCC1` came in with a logP of -0.06.

Compound `O=C(NN1CC=CCC1)c1cccc[n+]1[O-]` registered a logP of -0.32.

With `CC(C)(C)C(=O)NN1CC=CCC1`, the logP stood at 1.03.

`O=C(Cc1cccnc1)NN1CC=CCC1` came in with a logP of 0.05.

On to `O=C(Cc1ccc2c(c1)OCO2)NN1CC=CCC1`, for which the logP was 0.68.
